Blank lines part the entries; values can stand above or below the compound they belong to.
How the values were obtained:
Type in all cases: physicochemical
[1] = LNP size and polydispersity index (PDI) by dynamic light scattering (DLS)
[2] = LNP Zeta potential measured using a Zetasizer (Malvern); conditions: for Zeta potential: hEPO mRNA, N:P 6; for Zeta potential (mV): Table 10, LNP with hEPO mRNA, Lipid:DSPC:Cholesterol:DMG-PEG2k 50:10:38.5:1.5 mol %, N:P ratio 6
[3] = Encapsulation efficiency (EE %) by fluorescence based Ribogreen assay
[4] = Table 5, LNP 50:10:38.5:1.5 mol %, hEPO mRNA, N:P 6
[5] = Table 6, LNP 50:10:38.5:1.5 mol %, hEPO mRNA, N:P 6
[6] = Table 6, LNP 60:0:38.5:1.5 mol %, hEPO mRNA, N:P 6
[7] = Table 6, LNP lipid:DSPC:Cholesterol:DMG-PEG2k 50:10:38.5:1.5 mol %, hEPO mRNA, N:P 6
[8] = Table 6, LNP 50:10:38.5:1.5 mol %
[9] = Table 6, LNP 60:0:38.5:1.5 mol %
[10] = Table 7, LNP 30:10:58.5:1.5 mol %, helper lipid DOPC, hEPO mRNA, N:P 6
[11] = Table 7, LNP 30:10:58.5:1.5 mol %, helper lipid DOPE, hEPO mRNA, N:P 6
[12] = Table 7, LNP 30:10:58.5:1.5 mol %, helper lipid DSPC, hEPO mRNA, N:P 6
[13] = Table 7, LNP 50:10:38.5:1.5 mol %, helper lipid DOPC, hEPO mRNA, N:P 6
[14] = Table 7, LNP 50:10:38.5:1.5 mol %, helper lipid DOPE, hEPO mRNA, N:P 6
[15] = Table 7, LNP 50:10:38.5:1.5 mol %, helper lipid DSPC, hEPO mRNA, N:P 6
[16] = Table 8, LNP 50:10:38.5:1.5 mol %, hEPO mRNA, N:P 6
[17] = Table 8, LNP Lipid:DSPC:Cholesterol:DMG-PEG2k 50:10:38.5:1.5 mol %, hEPO mRNA, N:P 6
[18] = Table 8, LNP 50:10:38.5:1.5 mol %
[19] = Table 10, LNP with hEPO mRNA, Lipid:DSPC:Cholesterol:DMG-PEG2k 50:10:38.5:1.5 mol %, N:P ratio 6, DLS
[20] = Table 10, LNP with hEPO mRNA, Lipid:DSPC:Cholesterol:DMG-PEG2k 50:10:38.5:1.5 mol %, N:P ratio 6, Ribogreen assay

PDI [1, 5]: 0.126
PDI [1, 6]: 0.079
Size [1, 6]: 114.7 nm
Size [1, 7]: 77.7 nm
Zeta potential [2, 8]: −1.9 mV
Zeta potential [2, 9]: −0.6 mV
Encapsulation Efficiency % [3, 5]: 98.3%
Encapsulation Efficiency % [3, 6]: 99.7%
Compound: CCCCCCCCC(CCCCCC)C(=O)OCCN(CCOC(=O)C(CCCCCC)CCCCCCCC)C(=O)CCCN(C)C (stereo not shown) [Compound 807]

PDI [1, 5]: 0.114
PDI [1, 6]: 0.012
Size [1, 6]: 131.4 nm
Size [1, 7]: 96.3 nm
PDI [1, 10]: 0.113
Size [1, 10]: 120.1 nm
PDI [1, 11]: 0.105
Size [1, 11]: 79.1 nm
PDI [1, 12]: 0.033
Size [1, 12]: 93.8 nm
PDI [1, 13]: 0.131
Size [1, 13]: 99.1 nm
PDI [1, 14]: 0.214
Size [1, 14]: 134.5 nm
PDI [1, 15]: 0.13
Size ([1]; Table 7, LNP ionizable lipid:Helper Lipid:Cholesterol:DMG-PEG2k 50:10:38.5:1.5 mol %, helper lipid DSPC, hEPO mRNA, N:P 6): 114.4 nm
Zeta potential [2, 8]: −0.3 mV
Zeta potential [2, 9]: −0.4 mV
Zeta potential ([2]; Table 7, LNP 30:10:58.5:1.5 mol %, helper lipid DOPC): −9.115 mV
Zeta potential ([2]; Table 7, LNP 30:10:58.5:1.5 mol %, helper lipid DOPE): −10.16 mV
Zeta potential ([2]; Table 7, LNP 30:10:58.5:1.5 mol %, helper lipid DSPC): −7.184 mV
Zeta potential ([2]; Table 7, LNP 50:10:38.5:1.5 mol %, helper lipid DOPC): −8.233 mV
Zeta potential ([2]; Table 7, LNP 50:10:38.5:1.5 mol %, helper lipid DOPE): −7.52 mV
Zeta potential ([2]; Table 7, LNP 50:10:38.5:1.5 mol %, helper lipid DSPC): −7.7 mV
Encapsulation Efficiency % [3, 5]: 97%
Encapsulation Efficiency % [3, 6]: 99.2%
Encapsulation Efficiency % [3, 10]: 99.5%
Encapsulation Efficiency % [3, 11]: 99.7%
Encapsulation Efficiency % [3, 12]: 99.6%
Encapsulation Efficiency % [3, 13]: 98.8%
Encapsulation Efficiency % [3, 14]: 99.5%
Encapsulation Efficiency % [3, 15]: 98.8%
Compound: CCCCCCCCC(CCCCCC)C(=O)OCCN(CCOC(=O)C(CCCCCC)CCCCCCCC)C(=O)CCN(C)C (stereo not shown) [Compound 808]

PDI [1, 16]: 0.189
Size [1, 17]: 86.7 nm
Zeta potential [2, 18]: −1.6 mV
Encapsulation Efficiency % [3, 16]: 100%
Compound: CCCCCCCCC(CCCCCC)C(=O)OCCN(CCOC(=O)C(CCCCCC)CCCCCCCC)C(=O)CCNC.Cl (stereo not shown) [Compound 904]

PDI [1, 16]: 0.204
Size [1, 17]: 70.4 nm
Zeta potential [2, 18]: −2.9 mV
Encapsulation Efficiency % [3, 16]: 100%
Compound: CCCCCCCCC(CCCCCC)C(=O)OCCN(CCOC(=O)C(CCCCCC)CCCCCCCC)C(=O)CCNCC.Cl (stereo not shown) [Compound 905]

PDI [1, 16]: 0.215
Size [1, 17]: 69.2 nm
Zeta potential [2, 18]: −8 mV
Encapsulation Efficiency % [3, 16]: 100%
Compound: CCCCCCCCC(CCCCCC)C(=O)OCCN(CCOC(=O)C(CCCCCC)CCCCCCCC)C(=O)CCNCCC.Cl (stereo not shown) [Compound 908]

PDI [1, 19]: 0.124
Size (nm) [1, 19]: 82.8 nm
Zeta potential (mV) [2]: −5.5 mV
Encapsulation Efficiency % [3, 20]: 43.4%
Compound: CCCCCCCC/C=C\CCCCCCCC(=O)OCCN(CCOC(=O)C(CCCCCC)CCCCCCCC)C(=O)CCN(CC)CC (stereo not shown) [Compound 917a]

PDI [1, 19]: 0.122
Size (nm) [1, 19]: 106.9 nm
Zeta potential (mV) [2]: −4.5 mV
Encapsulation Efficiency % [3, 20]: 84%
Compound: CC/C=C\CCCCC(=O)OCCN(CCOC(=O)C(CCCCCC)CCCCCCCC)C(=O)CCN(CC)CC (stereo not shown) [Compound 917c]

PDI [1, 19]: 0.096
Size (nm) [1, 19]: 122 nm
Zeta potential (mV) [2]: −3.3 mV
Encapsulation Efficiency % [3, 20]: 60.3%
Compound: CCCCCCCCC(CCCCCC)C(=O)OCCN(CCOC(=O)CCCCCCC(C)C)C(=O)CCN(CC)CC (stereo not shown) [Compound 917d]

The next lines start with the compound.

Compound: CCCCCCCCCC(CCCCCCCCC)C(=O)OCCN(CCOC(=O)C(CCCCCCCCC)CCCCCCCCC)C(=O)C(N)Cc1ccccc1 (stereo not shown) [Compound 621]
PDI [1, 4]: 0.332
Size ([1]; Table 5, LNP Lipid:DSPC:Cholesterol:DMG-PEG2k 50:10:38.5:1.5 mol %, hEPO mRNA, N:P 6): 49.4 nm
Zeta potential ([2]; Table 5, LNP 50:10:38.5:1.5 mol %): −10.9 mV
Encapsulation Efficiency % [3, 4]: 98.9%

Compound: CCCCCCCCC(CCCCCC)C(=O)OCCN(CCOC(=O)C(CCCCCC)CCCCCCCC)C(=O)CCN (stereo not shown) [Compound 801]
PDI [1, 5]: 0.436
PDI [1, 6]: 0.169
Size [1, 6]: 93.6 nm
Size [1, 7]: 105.8 nm
Zeta potential [2, 8]: −1.5 mV
Zeta potential [2, 9]: 1.6 mV
Encapsulation Efficiency % [3, 5]: 98.5%
Encapsulation Efficiency % [3, 6]: 98.4%

Compound: CCCCCCCCC(CCCCCC)C(=O)OCCN(CCOC(=O)C(CCCCCC)CCCCCCCC)C(=O)CC(C)N (stereo not shown) [Compound 802]
PDI [1, 5]: 0.224
PDI [1, 6]: 0.195
Size [1, 6]: 87.6 nm
Size [1, 7]: 104.5 nm
Zeta potential [2, 8]: −1.8 mV
Zeta potential [2, 9]: 0.1 mV
Encapsulation Efficiency % [3, 5]: 98.4%
Encapsulation Efficiency % [3, 6]: 98.4%

Compound: CCCCCCCCC(CCCCCC)C(=O)OCCN(CCOC(=O)C(CCCCCC)CCCCCCCC)C(=O)CCCN (stereo not shown) [Compound 804]
PDI [1, 5]: 0.281
PDI [1, 6]: 0.147
Size [1, 6]: 81.1 nm
Size [1, 7]: 96 nm
Zeta potential [2, 8]: −1.7 mV
Zeta potential [2, 9]: 2.8 mV
Encapsulation Efficiency % [3, 5]: 98.3%
Encapsulation Efficiency % [3, 6]: 99.9%

Compound: CCCCCCCCC(CCCCCC)C(=O)OCCN(CCOC(=O)C(CCCCCC)CCCCCCCC)C(=O)CCC(C)N (stereo not shown) [Compound 805]
PDI [1, 5]: 0.214
PDI [1, 6]: 0.137
Size [1, 6]: 84.7 nm
Size [1, 7]: 110.2 nm
Zeta potential [2, 8]: −0.2 mV
Zeta potential [2, 9]: 3 mV
Encapsulation Efficiency % [3, 5]: 98.3%
Encapsulation Efficiency % [3, 6]: 99.9%

From US20250268826A1, “IONIZABLE LIPIDOID COMPOSITIONS AND THERAPEUTIC USES THEREOF” (Flagship Pioneering Innovations VII, LLC, priority 2023, published 2025)
